In one test the target is T1, Phosphomannomutase 2 (Homo sapiens, UniProt O15305).
T1 sequence (O15305 whole entry): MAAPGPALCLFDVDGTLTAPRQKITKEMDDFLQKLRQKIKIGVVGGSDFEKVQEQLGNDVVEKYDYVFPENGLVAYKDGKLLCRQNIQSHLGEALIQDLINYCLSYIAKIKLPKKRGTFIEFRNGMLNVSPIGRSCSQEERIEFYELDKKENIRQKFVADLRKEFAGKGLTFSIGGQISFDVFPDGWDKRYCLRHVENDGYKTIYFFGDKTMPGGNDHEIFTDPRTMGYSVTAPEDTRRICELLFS
In words: Counter screen SAR assay for PMM2 inhibitors via a fluorescence intensity assay. [Related pubchem assays (depositor defined):AID1545, AID1574].

In test [1] the target is Phosphoethanolamine/phosphocholine phosphatase (Homo sapiens, UniProt Q8TCT1). Kind of test: SAR assay for compounds that inhibit PHOSPHO1. [Related pubchem assays (depositor defined):AID1545, AID1565, AID1574].
Sequence of Phosphoethanolamine/phosphocholine phosphatase (Q8TCT1 whole entry): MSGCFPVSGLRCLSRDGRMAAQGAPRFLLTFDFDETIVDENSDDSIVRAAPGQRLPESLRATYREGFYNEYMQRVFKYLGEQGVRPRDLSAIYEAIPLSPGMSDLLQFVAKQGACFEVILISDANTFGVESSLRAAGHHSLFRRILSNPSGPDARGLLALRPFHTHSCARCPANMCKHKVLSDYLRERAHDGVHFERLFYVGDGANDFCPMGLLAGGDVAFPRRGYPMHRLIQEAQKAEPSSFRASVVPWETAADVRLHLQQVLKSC
Test [2] deals with Streptococcus sp. 'group A'. Kind of test: Streptococcus pyogenes SK(-)GAS viability under kanamycin – luminescence, BacTiterGlo, confirmation, counter-screen for streptokinase expression inhibitor project, dose response (AID 1900). Format: functional, organism-based.
The next test concerns Escherichia coli. Kind of test: microbe, parasite or virus in culture.
The target of test [3] is T2, Ubiquitin-conjugating enzyme E2 N (Homo sapiens, UniProt P61088).
T2 sequence (P61088 whole entry): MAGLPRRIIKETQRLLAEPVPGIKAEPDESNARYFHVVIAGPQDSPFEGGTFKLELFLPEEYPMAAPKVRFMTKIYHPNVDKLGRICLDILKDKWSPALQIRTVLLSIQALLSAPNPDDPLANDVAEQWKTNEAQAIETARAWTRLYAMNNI
Format: functional.

The target in another test is T3, Bcl-2-related protein A1 (Mus musculus, UniProt Q07440).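 Further: confirmatory dose–response counterscreen on Bfl-1, used to check hits from a UBC13 polyubiquitin inhibitor campaign.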
T3 sequence (Q07440 whole entry): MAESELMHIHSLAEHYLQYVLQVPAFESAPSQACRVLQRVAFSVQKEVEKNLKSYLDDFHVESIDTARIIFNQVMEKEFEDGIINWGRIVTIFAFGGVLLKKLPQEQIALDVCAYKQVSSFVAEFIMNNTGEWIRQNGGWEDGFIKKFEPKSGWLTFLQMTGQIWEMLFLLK
Format: functional.

For test [4], the target named is T2, Ubiquitin-conjugating enzyme E2 N. Format: functional. The source holds these as a separate data set.
In a further test the test system is Streptococcus. In words: GAS UMAA2166 growth inhibition – luminescence, BacTiterGlo, counter-screen for streptokinase expression inhibitor project, dose response (AID 1915).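 Further: potency for reduction of bacterial viability or growth.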 Type of test: functional, organism-based.
In test [5] the target is T4, Rac GTPase-activating protein 1 (Homo sapiens, UniProt Q9H0H5).
T4 sequence (Q9H0H5 whole entry): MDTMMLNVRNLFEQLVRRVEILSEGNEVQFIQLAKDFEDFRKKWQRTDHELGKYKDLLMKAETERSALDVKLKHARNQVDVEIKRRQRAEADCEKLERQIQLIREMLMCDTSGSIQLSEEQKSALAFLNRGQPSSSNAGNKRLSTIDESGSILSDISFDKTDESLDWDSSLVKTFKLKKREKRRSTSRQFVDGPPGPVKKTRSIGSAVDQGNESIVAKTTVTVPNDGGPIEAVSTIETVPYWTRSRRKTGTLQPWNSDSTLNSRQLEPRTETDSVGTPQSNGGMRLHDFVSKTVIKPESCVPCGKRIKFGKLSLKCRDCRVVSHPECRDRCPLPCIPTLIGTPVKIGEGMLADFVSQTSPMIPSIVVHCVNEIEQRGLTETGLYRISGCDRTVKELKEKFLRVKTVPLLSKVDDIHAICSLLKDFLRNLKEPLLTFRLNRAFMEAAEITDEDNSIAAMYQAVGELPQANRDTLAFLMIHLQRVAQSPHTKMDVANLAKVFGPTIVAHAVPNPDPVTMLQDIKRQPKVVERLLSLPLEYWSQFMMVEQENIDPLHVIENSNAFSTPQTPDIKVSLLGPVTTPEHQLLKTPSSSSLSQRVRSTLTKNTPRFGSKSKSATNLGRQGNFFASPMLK
In words: blockers of MgcRacGAP-driven Rac1 GTP hydrolysis – biochemical, ADP Hunter fluorescence, primary and confirmatory, confirmation (AID 624330). Format: functional.

For a further test, the target named is T5, CAAX prenyl protease 2 (Homo sapiens, UniProt Q9Y256).
T5 sequence (Q9Y256 whole entry): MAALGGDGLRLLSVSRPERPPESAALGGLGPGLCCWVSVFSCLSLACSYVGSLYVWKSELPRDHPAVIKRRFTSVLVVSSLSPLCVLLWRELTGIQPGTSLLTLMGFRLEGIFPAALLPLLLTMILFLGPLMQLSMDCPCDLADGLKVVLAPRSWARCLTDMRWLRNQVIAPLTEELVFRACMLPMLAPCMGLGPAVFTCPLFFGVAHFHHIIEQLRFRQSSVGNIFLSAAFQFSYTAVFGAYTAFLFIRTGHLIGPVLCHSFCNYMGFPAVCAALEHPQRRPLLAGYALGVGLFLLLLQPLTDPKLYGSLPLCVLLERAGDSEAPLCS
Kind of test: inhibition of Ras-converting CAAX protease Rce1 – biochemical, yeast membranes, quenched-peptide fluorescence, cherry-pick, dose response (AID 588849).

For test [6], the target named is T6, Endoribonuclease toxin MazF (Escherichia coli K-12, UniProt P0AE70).
T6 sequence (P0AE70 whole entry): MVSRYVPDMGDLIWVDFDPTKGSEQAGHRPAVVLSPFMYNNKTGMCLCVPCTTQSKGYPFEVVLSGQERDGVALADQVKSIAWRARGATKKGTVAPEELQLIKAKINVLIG
Kind of test: substrate-only fluorescence increase artefacts – biochemical, single-stranded RNase substrate, counter-screen for MazEF activator project, dose response (AID 588502). Type of test: functional.

A short description of test [7]: NIH-3T3 fibroblast cytotoxicity, dose response, cytotoxicity control, cell-based, fluorescence, Alamar Blue, secondary assay (AID 2327).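 Further: NIH-3T3 mouse fibroblasts cultured with fluconazole at 8 µg/mL.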 Format: functional.
For test [8], the target named is T7, DNA repair protein RAD52 homolog (Homo sapiens, UniProt P43351).
T7 sequence (P43351 whole entry): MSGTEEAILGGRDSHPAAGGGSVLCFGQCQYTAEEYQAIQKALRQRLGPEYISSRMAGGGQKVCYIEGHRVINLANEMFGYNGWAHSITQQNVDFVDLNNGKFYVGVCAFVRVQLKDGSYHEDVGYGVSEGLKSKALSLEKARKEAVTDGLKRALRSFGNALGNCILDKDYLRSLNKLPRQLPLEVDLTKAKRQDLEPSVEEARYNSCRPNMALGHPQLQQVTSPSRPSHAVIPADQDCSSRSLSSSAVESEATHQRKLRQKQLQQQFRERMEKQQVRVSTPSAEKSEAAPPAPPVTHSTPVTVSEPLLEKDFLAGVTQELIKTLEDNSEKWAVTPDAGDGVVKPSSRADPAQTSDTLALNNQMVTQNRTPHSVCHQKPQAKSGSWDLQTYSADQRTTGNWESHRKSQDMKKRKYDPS
Type of test: functional, biochemical.

Test [9] in a line: A cytotoxicity screen of small molecule inhibitors of the PhoP region in Salmonella typhi identified in the primary screen. [Related pubchem assays: 1850, 1864, 1985 ]. Type of test: functional.
Another test deals with T8, Streptokinase A (Streptococcus pyogenes serotype M1, UniProt P10520).
T8 sequence (P10520 whole entry): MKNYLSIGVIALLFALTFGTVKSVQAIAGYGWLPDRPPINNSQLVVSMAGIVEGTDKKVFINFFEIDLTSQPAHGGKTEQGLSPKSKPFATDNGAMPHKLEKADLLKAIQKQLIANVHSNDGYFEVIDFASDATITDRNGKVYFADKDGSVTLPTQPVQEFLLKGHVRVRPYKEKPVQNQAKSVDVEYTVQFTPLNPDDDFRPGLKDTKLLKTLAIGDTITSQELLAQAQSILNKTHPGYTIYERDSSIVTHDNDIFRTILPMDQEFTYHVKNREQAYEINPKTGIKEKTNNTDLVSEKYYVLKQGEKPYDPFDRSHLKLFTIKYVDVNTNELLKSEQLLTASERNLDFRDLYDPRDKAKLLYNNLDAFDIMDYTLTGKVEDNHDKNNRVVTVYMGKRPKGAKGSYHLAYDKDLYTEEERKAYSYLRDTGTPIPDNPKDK
In words: viability-normalized secreted streptokinase activity reduction – plasminogen activation absorbance, OD405, dose response (AID 1914).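 Further: secreted streptokinase activity via plasminogen activation per viability signal from cell pellet.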 Type of test: functional, Streptococcus pyogenes M1 GAS.

Test [10] in a line: fluconazole-exposed Candida albicans growth modulators – fluorescence, retest, confirmation (AID 2467). Type of test: functional, cell-based.
The target in test [11] is T6, Endoribonuclease toxin MazF. Kind of test: activation of MazEF endoribonuclease cleavage – biochemical, fluorescence, single-stranded RNA substrate, uHTS hits, dose response (AID 588481). Type of test: functional.
Test [12] in a line: Cytotoxicity screening for potential Inhibitors of Bacterial Capsule Biogenesis. [Related pubchem assays (depositor defined):AID488970]. Type of test: functional.
Another test has as its target Trypsin (Sus scrofa, UniProt P00761). In words: trypsin protease activity blockade – biochemical, quenched peptide fluorescence, cherry-pick, selectivity assay for Rce1 protease inhibitor project, dose response (AID 488789).
In the next test the target is Keap1/Nrf2 (Homo sapiens, UniProt Q14145). In words: disruptors of Keap1 binding to Nrf2 peptide – biochemical, fluorescence polarization, cherry-picked samples, dose response (AID 588683).
Sequence of Keap1/Nrf2 (Q16236 whole entry): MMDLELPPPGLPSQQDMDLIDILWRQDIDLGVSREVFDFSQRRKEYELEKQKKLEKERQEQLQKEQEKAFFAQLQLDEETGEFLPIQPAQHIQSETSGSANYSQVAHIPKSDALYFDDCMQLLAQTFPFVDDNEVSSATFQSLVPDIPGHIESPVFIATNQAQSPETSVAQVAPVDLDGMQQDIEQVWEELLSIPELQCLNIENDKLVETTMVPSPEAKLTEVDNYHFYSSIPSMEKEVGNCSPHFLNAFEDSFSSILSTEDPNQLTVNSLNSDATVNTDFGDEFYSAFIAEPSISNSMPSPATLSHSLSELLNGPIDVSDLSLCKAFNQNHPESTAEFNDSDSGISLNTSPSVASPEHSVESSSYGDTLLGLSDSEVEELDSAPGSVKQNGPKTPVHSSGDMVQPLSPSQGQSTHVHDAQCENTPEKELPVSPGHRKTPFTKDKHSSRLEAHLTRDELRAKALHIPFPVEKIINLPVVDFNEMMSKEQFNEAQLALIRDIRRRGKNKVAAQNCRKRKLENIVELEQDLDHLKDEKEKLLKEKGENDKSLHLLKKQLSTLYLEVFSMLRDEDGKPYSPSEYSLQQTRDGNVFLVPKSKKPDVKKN
Sequence of Keap1/Nrf2 (Q14145 whole entry): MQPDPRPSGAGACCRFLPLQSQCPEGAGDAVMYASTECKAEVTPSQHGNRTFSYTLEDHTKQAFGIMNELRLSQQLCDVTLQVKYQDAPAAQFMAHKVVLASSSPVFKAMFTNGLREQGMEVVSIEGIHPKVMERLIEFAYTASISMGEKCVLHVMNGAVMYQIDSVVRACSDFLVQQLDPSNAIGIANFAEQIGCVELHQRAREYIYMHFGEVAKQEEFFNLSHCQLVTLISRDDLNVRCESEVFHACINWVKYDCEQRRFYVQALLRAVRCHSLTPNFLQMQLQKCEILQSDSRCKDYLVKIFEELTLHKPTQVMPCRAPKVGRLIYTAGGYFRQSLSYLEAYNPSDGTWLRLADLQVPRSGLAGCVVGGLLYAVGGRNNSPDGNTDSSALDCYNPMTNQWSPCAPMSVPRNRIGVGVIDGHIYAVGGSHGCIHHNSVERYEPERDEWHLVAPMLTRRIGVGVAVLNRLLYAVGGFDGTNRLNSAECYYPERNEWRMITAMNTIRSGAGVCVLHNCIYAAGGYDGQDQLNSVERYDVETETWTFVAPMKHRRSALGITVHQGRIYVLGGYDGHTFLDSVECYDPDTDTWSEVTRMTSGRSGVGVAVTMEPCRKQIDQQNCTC
The test system of the next test is Salmon testes DNA. Kind of test: acridine orange-DNA binding displacement – biochemical, fluorescence polarization, cherry-picked samples, set 2, artefact control for KSHV LANA DNA-binding inhibitor project, dose response (AID 504727). Further details: species or system Salmonidae.
For a further test, the target named is T9, ORF 73 (Human herpesvirus 8, UniProt O40947).
T9 sequence (O40947 whole entry): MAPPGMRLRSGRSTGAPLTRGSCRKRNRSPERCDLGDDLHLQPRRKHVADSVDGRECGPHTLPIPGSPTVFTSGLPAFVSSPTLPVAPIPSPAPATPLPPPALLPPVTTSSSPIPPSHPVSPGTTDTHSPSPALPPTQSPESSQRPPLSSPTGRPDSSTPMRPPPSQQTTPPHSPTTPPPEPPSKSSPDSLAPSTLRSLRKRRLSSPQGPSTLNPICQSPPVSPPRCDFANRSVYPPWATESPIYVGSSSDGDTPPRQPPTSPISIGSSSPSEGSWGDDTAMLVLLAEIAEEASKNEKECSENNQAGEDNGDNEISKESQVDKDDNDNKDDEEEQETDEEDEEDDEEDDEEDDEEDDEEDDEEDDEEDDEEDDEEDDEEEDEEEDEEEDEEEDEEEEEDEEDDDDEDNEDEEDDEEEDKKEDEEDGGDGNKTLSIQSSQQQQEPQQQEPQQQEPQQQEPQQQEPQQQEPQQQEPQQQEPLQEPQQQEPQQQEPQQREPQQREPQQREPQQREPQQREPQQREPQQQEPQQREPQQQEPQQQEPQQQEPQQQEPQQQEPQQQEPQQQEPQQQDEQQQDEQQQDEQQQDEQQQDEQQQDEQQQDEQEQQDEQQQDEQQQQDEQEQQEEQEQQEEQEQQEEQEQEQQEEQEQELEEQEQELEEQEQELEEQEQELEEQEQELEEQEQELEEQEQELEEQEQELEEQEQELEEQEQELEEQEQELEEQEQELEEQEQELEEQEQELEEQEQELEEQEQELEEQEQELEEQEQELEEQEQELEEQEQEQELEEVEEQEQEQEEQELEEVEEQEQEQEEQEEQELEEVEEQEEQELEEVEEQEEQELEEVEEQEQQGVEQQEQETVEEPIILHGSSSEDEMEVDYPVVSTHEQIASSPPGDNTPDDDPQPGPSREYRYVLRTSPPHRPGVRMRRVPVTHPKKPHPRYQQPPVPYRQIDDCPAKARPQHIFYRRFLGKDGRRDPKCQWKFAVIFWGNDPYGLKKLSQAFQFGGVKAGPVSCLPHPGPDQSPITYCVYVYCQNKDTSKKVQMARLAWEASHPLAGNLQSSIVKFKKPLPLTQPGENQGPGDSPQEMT
Kind of test: KSHV LANA DNA-binding disruption – biochemical, fluorescence polarization, cherry-picked samples, dose response (AID 504725).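 Further: fluorescence polarization of a labeled DNA duplex reporting LANA DNA binding; potency is for inhibitors that block LANA binding to the DNA.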 Also on record: species or system Human gammaherpesvirus 8.

Test [13] has as its target UDP-galactopyranose mutase (Mycobacterium tuberculosis, UniProt P9WIQ1). Kind of test: Inhibitors of Mycobacterium tuberculosis UDP-galactopyranose mutase (UGM) enzyme Measured in Biochemical System Using Plate Reader - 2105-02_Inhibitor_Dose_CherryPick_Activity. [Related pubchem assays (depositor defined):AID504439].

This is an account of results in ChEMBL document CHEMBL1201862, “PubChem BioAssay data set” (2004).

Each structure is given as a SMILES string. The source made the active and inactive calls. Where only a bound is given, the exact number is not on record here.

Sequence of UDP-galactopyranose mutase (P9WIQ1 whole entry): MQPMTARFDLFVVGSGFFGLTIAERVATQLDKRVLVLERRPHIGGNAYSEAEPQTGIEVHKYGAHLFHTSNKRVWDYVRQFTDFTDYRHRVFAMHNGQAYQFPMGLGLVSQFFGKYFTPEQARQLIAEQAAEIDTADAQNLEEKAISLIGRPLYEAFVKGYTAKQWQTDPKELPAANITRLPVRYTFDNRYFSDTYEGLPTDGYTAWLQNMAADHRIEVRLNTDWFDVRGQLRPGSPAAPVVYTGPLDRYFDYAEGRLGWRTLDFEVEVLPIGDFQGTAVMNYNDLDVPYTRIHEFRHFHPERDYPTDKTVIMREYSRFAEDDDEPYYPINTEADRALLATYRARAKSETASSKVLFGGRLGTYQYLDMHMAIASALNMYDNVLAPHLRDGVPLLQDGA
Sequence of Trypsin (P00761 whole entry): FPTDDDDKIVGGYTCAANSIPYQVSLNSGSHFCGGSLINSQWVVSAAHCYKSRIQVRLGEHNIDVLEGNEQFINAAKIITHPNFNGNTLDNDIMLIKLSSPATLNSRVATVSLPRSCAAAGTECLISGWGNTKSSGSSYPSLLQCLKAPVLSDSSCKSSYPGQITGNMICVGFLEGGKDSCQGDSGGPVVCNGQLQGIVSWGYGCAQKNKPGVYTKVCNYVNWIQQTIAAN

For `CN(C)c1cccc(-n2sc3ccccc3c2=O)c1`, the figures for the IC50 (at Phosphomannomutase 2; in test [1]) were 85.2 µM (active) and 52.9 µM (inactive), respectively.
On to `N=C(N)c1ccc(/C=C/c2ccc(C(=N)N)cc2O)cc1`, for which the half-maximal effective concentration (EC50) is 1.43 µM (active) in test [2]; > 150 µM (not active) with Streptococcus; > 99 µM (inactive) in test [6]; > 150 µM (inactive) in [7]; > 50 µM (active) in [9]; 20 µM (active) at Streptokinase A. Further, the EC50 was 0.529 µM (active) in [10] and 4.77 µM (active) in test [11]. Also, the AC50 in the test with Escherichia coli was 37.7 µM (active); on CAAX prenyl protease 2, > 100 µM (inactive); in test [8] it was 0.708 µM (active); at Trypsin, 3.15 µM (active). The IC50 in [3] is 3.61 µM (active); on Bcl-2-related protein A1 it was > 20 µM (inactive); in test [4], 2.8 µM (active); in test [5], 39 µM (active). In test [12], the CC50 is > 100 µM (active).
Turning to `Cc1cc2nc3c(O)nc(S)nc3nc2cc1NC(=O)C(F)(F)F`, the AC50 is > 52 µM (inactive) at Keap1/Nrf2, 86.4 µM (active) in the test with Salmon testes DNA, 40.6 µM (active) at ORF 73 and 19.6 µM (active) in test [13]. Moreover, the EC50 in [6] and in [11] was > 99 µM (inactive) in each case.
